Laboratory results taken from US7465556B2, “Method of immunoassay tartrate resistant acid phosphatase 5b and kit to be used therein” (Nitto Boseki Co., Ltd., priority 2003, dated 2008).

Tests used:
TRACP 5b [1] = assay: Enzymatic activity of TRACP 5b bound to immobilized anti-TRACP 5b antibody plate, end-point absorbance; type: biochemical, human
Experimental: (§1) The pH of a buffer solution containing a substrate CNPP was varied from 5.6 to 6.8 and the activity of TRACP 5b and TRACP 5a for this substrate was assayed. This substrate buffer solution had the following composition: CNPP 5 mM, Mes 0.1 M and sodium tartrate 40 mM. Its pH was adjusted to values varying from 5.6 to 6.8 by steps of 0.2. TRACP 5b and TRACP 5a used as samples were prepared by separating human serum by the use of a Heparin column and concentrating a fraction corresponding to a peak due to each of TRACP 5a and TRACP 5b. As TRACP 5a, there was used a sample having such a concentration that its absorbance was 0.8 at pH 5.6 (the optimum for TRACP 5a). As TRACP 5b, there was used a sample having such a concentration that its absorbance was 0.8 at pH 6.4 (the optimum for TRACP 5b). As to a method for the assay, a plate having an anti-TRACP 5b antibody Trk27 immobilized thereon was used and 100 μl of each sample was added to each well and stirred with shaking at room temperature for 1 hour. Then, the reaction solution was discarded and each well was washed three times with 200 μl of Tris buffer containing 0.05% Tween 20. Thereafter, 100 μl of the substrate buffer solution was added to each well and shaken for 30 seconds, followed by incubation in an incubator at 37° C. for 1 hour. Then, 50 μl of 0.2N NaOH was added to each well to terminate the enzyme reaction and the absorbance of the reaction solution was measured with a microtiter plate reader. Under such conditions, the optimum pH for TRACP 5b was about 6.4 and that for TRACP 5a was 5.6.
(§2) Absorbance values due to the reaction of a buffer solution containing a substrate CNPP with each of TRACP 5a and TRACP 5b at pHs 6.2, 6.4, 6.6 and 6.8 were compared with results obtained in a comparative example using a buffer solution (pH 6.1) containing, as a substrate, PNPP that is considered suitable for the assay of TRACP 5b. According to the method disclosed in Japanese Patent Application Kohyo No. 2002-510050, the composition of this PNPP substrate buffer solution was as follows: PNPP 8 mM, sodium acetate 0.1M, sodium tartrate 40 mM, pH 6.1. As a sample of TRACP 5b, the same sample as in Example 1 was used. As a sample of TRACP 5a, a sample was used which had been prepared so that in the comparative example (PNPP was used at pH 6.1), a value for TRACP 5a might be one-tenth that for TRACP 5b according to the data disclosed in Japanese Patent Application Kohyo No. 2002-510050. The same assay procedure as in Example 1 was carried out and absorbance was used as an indication of the enzymatic activity.

TRACP 5a [2] = biological target: T1, TRACP 5a (Homo sapiens, UniProt P13686); assay: Enzymatic activity of TRACP 5a bound to immobilized anti-TRACP 5b antibody plate, end-point absorbance; type: biochemical
T1 construct: TRACP 5a derived from human serum and eluted from a HiTrap Heparin HP column; from tissue; host or cells: human serum, heparin column fraction
T1 sequence (P13686 22-325): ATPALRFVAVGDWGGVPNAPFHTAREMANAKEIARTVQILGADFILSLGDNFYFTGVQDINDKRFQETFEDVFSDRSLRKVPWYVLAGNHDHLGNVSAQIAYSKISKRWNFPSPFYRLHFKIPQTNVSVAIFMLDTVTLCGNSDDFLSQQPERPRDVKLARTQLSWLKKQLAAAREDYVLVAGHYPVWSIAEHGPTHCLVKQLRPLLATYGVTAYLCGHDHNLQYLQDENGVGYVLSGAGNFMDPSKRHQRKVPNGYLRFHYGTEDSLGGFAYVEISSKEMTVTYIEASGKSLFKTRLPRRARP
Experimental: as §1, §2

TRACP 5b [3] = assay: Enzymatic activity of TRACP 5b bound to immobilized anti-TRACP 5b antibody plate, end-point absorbance; type: biochemical, human; details: pH 6.9
TRACP 5b [4] = biological target: T2, TRACP 5b (Homo sapiens, UniProt P13686); details: pH 5.8; according to Clin. Chem., 47(1), 74-80; cited from earlier work
T2 sequence (P13686 22-325): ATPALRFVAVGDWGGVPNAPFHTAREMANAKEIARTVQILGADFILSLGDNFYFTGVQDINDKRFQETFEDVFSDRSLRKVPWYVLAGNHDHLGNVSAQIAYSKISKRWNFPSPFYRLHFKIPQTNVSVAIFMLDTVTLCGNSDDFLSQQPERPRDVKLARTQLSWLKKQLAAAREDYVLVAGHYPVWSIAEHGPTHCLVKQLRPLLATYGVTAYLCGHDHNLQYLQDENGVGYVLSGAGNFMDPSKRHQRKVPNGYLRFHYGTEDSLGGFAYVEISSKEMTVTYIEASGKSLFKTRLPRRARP

TRACP 5a [5] = biological target: T1, TRACP 5a; details: pH 5.2; according to Clin. Chem., 47(1), 74-80; cited from earlier work
[6] = substrate: O=[N+]([O-])c1ccc(OP(=O)(O)O)c(Cl)c1; assay: Km measurement of substrate with TRACP 5b; type: biochemical, human; details: other: pH 6.4
Experimental: (§3) In order to investigate the difference between TRACP 5b and TRACP 5a in reactivity with 2-chloro-4-nitrophenylphosphoric acid (CNPP), Km for each of them was measured.
(§4) That is, for the assay of TRACP 5b, CNPP used in the present invention is more advantageous than PNPP from the viewpoint of affinity and specificity.

[7] = substrate: O=[N+]([O-])c1ccc(OP(=O)(O)O)c(Cl)c1; assay: Km measurement of substrate with TRACP 5a; type: biochemical, human; details: other: pH 5.6
Experimental: as §3, §4

[8] = pH 6.1, PNPP 8 mM, sodium acetate 0.1M, sodium tartrate 40 mM

O=[N+]([O-])c1ccc(OP(=O)(O)O)c(Cl)c1 [CNPP, 2-chloro-4-nitrophenylphosphoric acid]
TRACP 5b/5a ratio (TRACP 5b [1]; pH 6.2): 13 | absorbance (enzymatic activity), sample TRACP 5b (TRACP 5b [1]; pH 6.2): 0.802 | TRACP 5b/5a ratio (TRACP 5b [1]; pH 6.4): 17 | absorbance (enzymatic activity), sample TRACP 5b (TRACP 5b [1]; pH 6.4): 0.811 | TRACP 5b/5a ratio (TRACP 5b [1]; pH 6.6): 18 | absorbance (enzymatic activity), sample TRACP 5b (TRACP 5b [1]; pH 6.6): 0.674 | optimum pH for TRACP 5a (TRACP 5a [2]; CNPP 5 mM, Mes 0.1 M, sodium tartrate 40 mM, pH 5.6 to 6.8, 37° C. 1 hour): 5.6 | absorbance (enzymatic activity), sample TRACP 5a (TRACP 5a [2]; pH 6.2): 0.062 | absorbance (enzymatic activity), sample TRACP 5a (TRACP 5a [2]; pH 6.4): 0.047 | absorbance (enzymatic activity), sample TRACP 5a (TRACP 5a [2]; pH 6.6): 0.038 | absorbance (enzymatic activity), sample TRACP 5a (TRACP 5a [2]; pH 6.9): 0.025 | TRACP 5b/5a ratio (TRACP 5b [3]): 16 | absorbance (enzymatic activity), sample TRACP 5b (TRACP 5b [3]): 0.401

O=[N+]([O-])c1ccc(OP(=O)(O)O)cc1 [PNPP, p-nitrophenylphosphoric acid, reference compound]
TRACP 5b/5a ratio (TRACP 5b [1]; [8]): 10 | absorbance (enzymatic activity), sample TRACP 5b (TRACP 5b [1]; [8]): 0.981 | absorbance (enzymatic activity), sample TRACP 5a (TRACP 5a [2]; pH 6.1, PNPP 8 mM, sodium acetate 0.1M, sodium tartrate 40 mM, 5a sample prepared to give one-tenth of 5b value): 0.098 | Km (TRACP 5b [4]): 7000 µM | Km (TRACP 5a [5]): 1900 µM

B1: TRACP 5b (Homo sapiens) (protein)
chain: ATPALRFVAVGDWGGVPNAPFHTAREMANAKEIARTVQILGADFILSLGDNFYFTGVQDINDKRFQETFEDVFSDRSLRKVPWYVLAGNHDHLGNVSAQIAYSKISKRWNFPSPFYRLHFKIPQTNVSVAIFMLDTVTLCGNSDDFLSQQPERPRDVKLARTQLSWLKKQLAAAREDYVLVAGHYPVWSIAEHGPTHCLVKQLRPLLATYGVTAYLCGHDHNLQYLQDENGVGYVLSGAGNFMDPSKRHQRKVPNGYLRFHYGTEDSLGGFAYVEISSKEMTVTYIEASGKSLFKTRLPRRARP
Km [6]: 1500 µM

B2: TRACP 5a (Homo sapiens) (protein)
chain: ATPALRFVAVGDWGGVPNAPFHTAREMANAKEIARTVQILGADFILSLGDNFYFTGVQDINDKRFQETFEDVFSDRSLRKVPWYVLAGNHDHLGNVSAQIAYSKISKRWNFPSPFYRLHFKIPQTNVSVAIFMLDTVTLCGNSDDFLSQQPERPRDVKLARTQLSWLKKQLAAAREDYVLVAGHYPVWSIAEHGPTHCLVKQLRPLLATYGVTAYLCGHDHNLQYLQDENGVGYVLSGAGNFMDPSKRHQRKVPNGYLRFHYGTEDSLGGFAYVEISSKEMTVTYIEASGKSLFKTRLPRRARP
notes: TRACP 5a derived from human serum and eluted from a HiTrap Heparin HP column; from tissue; host or cells: human serum, heparin column fraction
Km [7]: 3500 µM
